According to patent US11648247B1, “Compositions and methods for the treatment of presbyopia” (Lenz Therapeutics, Inc., priority 2021, dated 2023):

Experiments:
[1] = Stability of aceclidine in storage (HPLC); format: physicochemical; settings: for Stability of Aceclidine: same composition
Procedure: 20 samples of the above composition were divided evenly and stored at 25° C. and 4° C. Prior to storage, initial concentrations of aceclidine were measured using […] (“HPLC”). The amount of aceclidine in each solution was calculated by the area under the principal peak compared to a reference solution of aceclidine. Samples were then subject to storage for 3 months. Aceclidine measurements were taken at 1, 2 and 3 months.

presbyopic subjects [2] = test: Near and distance visual acuity after topical instillation (lines of improvement, onset, duration, efficacy index); format: in vivo, human
Procedure: As aceclidine is an […], the clinical effectiveness may vary with different ratios. For the present studies a nearly exact 50:50 ratio of stereoisomers was measured as best determined by polarimetry.
In brief, the score is calculated by multiplying the lines of improvement in near visual acuity by the number of hours the improvement lasts. For example, a score of: 5 is equal to +1 lines of improvement in near visual acuity for 5 hours; 10 is equal to +1.5 lines of improvement for 6.7 hours; 15 is equal to 2 lines of improvement for 7.5 hours; 20 is equal to 2.5 lines of improvement for 8 hours; 25 is equal to 3+ lines of improvement for 8.3 hours and 35 is equal to 3.75+ lines of improvement for 9 hours.
The subject instilled 2 drops of the above formulation in each eye as 1 single drop each eye and a second drop after 5 minutes.
2 subjects instilled 2 drops each of the above formulation in each eye about 5 minutes apart.
A 1.75% aceclidine in saline solution was formulated. One drop was instilled into each eye of a presbyopic subject. The visual acuity of the subject was tested both before and after instillation using a LogMAR chart.
Formulation AB#1 was instilled via 2-drops with a 5-minute interval in the eyes of a person. […] All near and distance vision with over-refraction was red-green adjusted to emmetropia. Near vision at 1 hour post instillation was measured. Further, duration to 20.40 vision was measured.

eye [3] = test: Comfort and tolerability after instillation (stinging, redness, ciliary spasm/brow ache, blur, dimming); format: in vivo, human; settings: for night vision / dimming: pH 7.5
Procedure: Ciliary spasms scores correspond to the following: 0=no discomfort; 0.5=slight sting; 1=noticeable squeeze/discomfort; 2=pain for less than 30 minutes; 3=pain for 1 hour or more; and 4=severe to intolerable pain.

eye [4] = settings: brimonidine 0.20% w/v (Alphagan®) twice daily; cited from earlier work
pupil = settings: cited from earlier work
presbyopic subjects [5] = settings: pilocarpine with oxymetazoline, US 2014/0113946; cited from earlier work
[6] = post instillation, 1.75% aceclidine in saline solution

CC(=O)OC1CN2CCC1CC2 (racemic) [aceclidine]
Stability of Aceclidine ([1]; 4° C., 1 month): 93% | Stability of Aceclidine ([1]; 4° C., 2 months): 92% | Stability of Aceclidine ([1]; 4° C., 3 months): 88% | Stability of Aceclidine ([1]; 4° C., Initial): 100% | Stability of Aceclidine ([1]; 25° C., 1 month): 92% | Stability of Aceclidine ([1]; 25° C., 2 months): 75% | Stability of Aceclidine ([1]; 25° C., 3 months): 50% | Stability of Aceclidine (amount vs reference) ([1]; 25° C., Initial, 1.50% aceclidine, 0.042% tropicamide, 5.5% polyoxyl 40 stearate, 2.5% mannitol, 3 mM citrate, pH 4.75): 100% | near vision (presbyopic subjects [2]; FIG. 2, aceclidine in carrier: 5.5% HPβCD, 0.75% CMC, 0.25% NaCl, 0.01% BAK): < 20.20 | LogMAR score at 1-meter distance (presbyopic subjects [2]; after instillation, 1.75% aceclidine in saline solution): −0.12 LogMAR | LogMAR score at 45 centimeters distance (presbyopic subjects [2]; after instillation, 1.75% aceclidine in saline solution, one drop each eye, 0.50 prior): 0.22 LogMAR | Noticeable degradation in reading distance acuity began (presbyopic subjects [2]; [6]): 4 h | improved reading distance acuity maintained (presbyopic subjects [2]; [6]): 3.5 h | Stinging, lasting (eye [3]; 1.35% w/v aceclidine, Example 2): 2 to 5 s

Brc1c(NC2=NCCN2)ccc2nccnc12 [brimonidine]
rebound redness (eye [4]): 25 % of patients | tachyphylaxis of pupil modulation (pupil; brimonidine 0.20% w/v topically for night vision, within four weeks of use): ~100 % of treated subjects | duration of miotic effect (pupil; brimonidine, typically): about four hours | transiently induced miosis (pupil; brimonidine): 1.0-2.0 mm

CC[C@@H]1C(=O)OC[C@@H]1Cc1cncn1C [pilocarpine]
time until full effect became diminished (presbyopic subjects [5]): about four hours

tropicamide
night vision / dimming (eye [3]; 0.035% w/v tropicamide in 1.55% w/v aceclidine composition): slight dimming | night vision / dimming (eye [3]; 0.042% w/v tropicamide in 1.55% w/v aceclidine composition): normal indoor night vision | effect on brow ache (eye [3]; tropicamide 0.01% w/v with aceclidine): slightly reduce brow ache | effect on brow ache (eye [3]; tropicamide 0.014% w/v with aceclidine): reduce brow ache | effect on brow ache (eye [3]; tropicamide 0.021% w/v with aceclidine): further reduce brow ache | effect on brow ache (eye [3]; tropicamide 0.030% w/v with aceclidine): further reduce brow ache | effect on brow ache (eye [3]; tropicamide from 0.028% to 0.060% w/v with aceclidine): completely eliminate brow ache | effect on brow ache (eye [3]; tropicamide from 0.04% to about 0.07% w/v with aceclidine): completely eliminate brow ache
